Numbered stars: 1 amine (or outer) side, 2 acyl side, 3 side chain; on linkers, the order of the positions; unused ones are H or OH. Peptide text beside a SMILES is read from it. * marks the point of attachment. C18 diacid = O=C(O)CCCCCCCCCCCCCCCCC(=O)*; γGlu = O=C(O)[C@H](CCC(=O)[*:2])N[*:1]; C14 diacid = O=C(O)CCCCCCCCCCCCC(=O)*; Palmitoyl = CCCCCCCCCCCCCCCC(=O)*
Key:
[1] = Solubility in 100 mM bistrispropane buffer at pH 6.0 incubated for 18 hrs by UPLC analysis; type: physicochemical
[2] = biological target: T1, Amylin receptor AMY3; CALCR/RAMP3 (Homo sapiens, UniProt O60896+P30988); assay: Agonist activity at human amylin receptor expressed in BHK570 cells co-expressing RAMP3 assessed as increase in intracellular cAMP concentration incubated for 3 hrs in absence of albumin by CRE luciferase reporter gene assay; type: functional, cell-based
T1 sequence (P30988 whole entry): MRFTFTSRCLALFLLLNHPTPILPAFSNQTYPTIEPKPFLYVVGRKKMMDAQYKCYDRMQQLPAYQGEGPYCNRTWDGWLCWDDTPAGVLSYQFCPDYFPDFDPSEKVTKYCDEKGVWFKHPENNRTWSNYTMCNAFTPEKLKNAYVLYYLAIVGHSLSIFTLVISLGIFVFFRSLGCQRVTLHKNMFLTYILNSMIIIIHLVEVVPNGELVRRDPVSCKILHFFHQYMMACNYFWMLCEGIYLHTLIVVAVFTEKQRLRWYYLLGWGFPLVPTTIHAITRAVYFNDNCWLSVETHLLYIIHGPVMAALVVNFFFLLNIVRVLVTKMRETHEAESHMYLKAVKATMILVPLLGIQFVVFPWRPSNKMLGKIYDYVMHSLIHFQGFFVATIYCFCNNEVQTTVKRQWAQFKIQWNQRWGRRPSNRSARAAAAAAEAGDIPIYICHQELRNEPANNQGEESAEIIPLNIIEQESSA
T1 sequence (O60896 whole entry): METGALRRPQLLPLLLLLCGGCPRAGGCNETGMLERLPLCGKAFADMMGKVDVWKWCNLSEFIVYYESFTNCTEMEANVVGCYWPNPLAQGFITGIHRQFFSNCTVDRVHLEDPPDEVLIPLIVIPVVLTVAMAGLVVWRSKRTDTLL

[3] = Solubility in 100 mM bistrispropane buffer at pH 6.5 incubated for 18 hrs by UPLC analysis; type: physicochemical
[4] = Solubility in 100 mM glycylglycine buffer at pH 4.0 incubated for 18 hrs by UPLC analysis; type: physicochemical
[5] = Solubility in 100 mM bistrispropane buffer at pH 7.5 incubated for 18 hrs by UPLC analysis; type: physicochemical
[6] = biological target: T1, Amylin receptor AMY3; CALCR/RAMP3; assay: Displacement of [125I]-labeled rat amylin from human amylin receptor expressed in BHK tkts13 whole cells co-expressing RAMP3 incubated for 60 mins by scintillation proximity assay; type: cell-based
[7] = Solubility in 100 mM glycylglycine buffer at pH 3.0 incubated for 18 hrs by UPLC analysis; type: physicochemical
[8] = Solubility in 100 mM glycylglycine buffer at pH 5.0 incubated for 18 hrs by UPLC analysis; type: physicochemical
Calcitonin receptor = biological target: T2, Calcitonin receptor (Homo sapiens, UniProt P30988); assay: Agonist activity at human calcitonin receptor expressed in BHK570 cells assessed as increase in intracellular cAMP concentration incubated for 3 hrs in absence of albumin by CRE luciferase reporter gene assay; type: functional, cell-based
T2 sequence (P30988 whole entry): T1 sequence (P30988 whole entry)

[9] = Solubility in 100 mM bistrispropane buffer at pH 7.0 incubated for 18 hrs by UPLC analysis; type: physicochemical
[10] = Solubility in 100 mM bistrispropane buffer at pH 8.0 incubated for 18 hrs by UPLC analysis; type: physicochemical

| Compound | solubility at 18 h [1] [µM] | EC50 [2] [nM] | solubility at 18 h [3] [µM] | solubility at 18 h [4] [µM] | solubility at 18 h [5] [µM] | IC50 [6] [nM] | solubility at 18 h [7] [µM] | solubility at 18 h [8] [µM] | EC50 (Calcitonin receptor) [nM] | solubility at 18 h [9] [µM] | solubility at 18 h [10] [µM] |
| --- | --- | --- | --- | --- | --- | --- | --- | --- | --- | --- | --- |
| CC(C)C[C@H](NC(=O)[C@H](CCC(=O)O)NC(=O)[C@H](Cc1cnc[nH]1)NC(=O)[C@H](CC(C)C)NC(=O)[C@H](CCC(=O)O)NC(=O)[C@H](C)NC(=O)[C@H](CO)NC(=O)[C@H](CC(C)C)NC(=O)[C@H](CCCNC(=N)N)NC(=O)CNC(=O)[C@H](CC(C)C)NC(=O)[C@@H](NC(=O)[C@H](C)NC(=O)[C@@H](NC(=O)[C@H](CO)NC(=O)[C@@H](NC(=O)[C@H](CCC(=O)O)NC(=O)[C@H](CO)NC(=O)[C@H](C)NC(=O)CC[C@H](NC(=O)CCCCCCCCCCCCCCCCC(=O)O)C(=O)O)C(C)C)[C@@H](C)O)C(C)C)C(=O)N[C@@H](C)C(=O)N[C@H](C(=O)N[C@@H](CC(C)C)C(=O)N1CCC[C@H]1C(=O)N[C@@H](CCCNC(=N)N)C(=O)N[C@H](C(=O)N[C@@H](CCC(=O)O)C(=O)N[C@H](C(=O)NCC(=O)N[C@@H](CO)C(=O)NCC(=O)N[C@@H](CO)C(=O)N1CCC[C@H]1C(N)=O)[C@@H](C)O)[C@@H](C)O)[C@@H](C)O ({C18 diacid-γGlu}-ASEVSTAVLGRLSAELHELATLPRTETGSGSP-NH2) |  | 0.032 | ≥ 200 | ≥ 200 | ≥ 200 | 0.812 | ≥ 200 | ≥ 200 | 0.013 | ≥ 200 | ≥ 200 |
| CC[C@H](C)[C@H](NC(=O)[C@H](C)NC(=O)[C@@H](NC(=O)[C@H](CO)NC(=O)[C@H](CC(C)C)NC(=O)[C@H](CCC(=O)O)NC(=O)[C@H](CO)NC(=O)[C@H](C)NC(=O)[C@H](CCC(=O)O)NC(=O)CCCCCCCCCCCCCCCCC(=O)O)[C@@H](C)O)C(=O)N[C@@H](CC(C)C)C(=O)NCC(=O)N[C@@H](CCCNC(=N)N)C(=O)N[C@@H](CC(C)C)C(=O)N[C@@H](CO)C(=O)N[C@@H](C)C(=O)N[C@@H](CCC(=O)O)C(=O)N[C@@H](CC(C)C)C(=O)N[C@@H](Cc1cnc[nH]1)C(=O)N[C@@H](CCC(=O)O)C(=O)N[C@@H](CC(C)C)C(=O)N[C@@H](C)C(=O)N[C@H](C(=O)N[C@@H](CC(C)C)C(=O)N1CCC[C@H]1C(=O)N[C@@H](CCCNC(=N)N)C(=O)N[C@H](C(=O)N[C@@H](CCC(=O)O)C(=O)N[C@H](C(=O)NCC(=O)N1CCC[C@H]1C(=O)N[C@@H](CCC(=O)O)C(=O)N[C@@H](CO)C(=O)N1CCC[C@H]1C(N)=O)[C@@H](C)O)[C@@H](C)O)[C@@H](C)O ({C18 diacid}-EASELSTAILGRLSAELHELATLPRTETGPESP-NH2) | ≥ 200 | 0.016 | ≥ 200 |  | ≥ 200 | 0.417 | ≥ 200 | ≥ 200 | 0.005 | ≥ 200 | ≥ 200 |

The next compounds have a lower EC50 [2] than those just listed; values first:

| solubility at 18 h [1] [µM] | EC50 [2] [nM] | solubility at 18 h [3] [µM] | solubility at 18 h [4] [µM] | solubility at 18 h [5] [µM] | IC50 [6] [nM] | solubility at 18 h [7] [µM] | solubility at 18 h [8] [µM] | EC50 (Calcitonin receptor) [nM] | solubility at 18 h [9] [µM] | solubility at 18 h [10] [µM] | Compound |
| --- | --- | --- | --- | --- | --- | --- | --- | --- | --- | --- | --- |
| ≥ 200 | 0.01 | ≥ 200 | ≥ 200 | ≥ 200 | 0.435 | ≥ 200 | ≥ 200 | 0.013 | ≥ 200 | ≥ 200 | CCCCCCCCCCCCCCCC(=O)N[C@@H](CCC(=O)O)C(=O)N[C@@H](C)C(=O)N[C@@H](CO)C(=O)N[C@@H](CCC(=O)O)C(=O)N[C@@H](CC(C)C)C(=O)N[C@@H](CO)C(=O)N[C@H](C(=O)N[C@@H](C)C(=O)N[C@@H](C)C(=O)N[C@@H](CC(C)C)C(=O)NCC(=O)N[C@@H](CCCNC(=N)N)C(=O)N[C@@H](CC(C)C)C(=O)N[C@@H](CO)C(=O)N[C@@H](C)C(=O)N[C@@H](CCC(=O)O)C(=O)N[C@@H](CC(C)C)C(=O)N[C@@H](Cc1cnc[nH]1)C(=O)N[C@@H](CCC(=O)O)C(=O)N[C@@H](CC(C)C)C(=O)N[C@@H](C)C(=O)N[C@H](C(=O)N[C@@H](CC(C)C)C(=O)N1CCC[C@H]1C(=O)N[C@@H](CCCNC(=N)N)C(=O)N[C@H](C(=O)N[C@@H](CCC(=O)O)C(=O)N[C@H](C(=O)NCC(=O)N1CCC[C@H]1C(=O)N[C@@H](CCC(=O)O)C(=O)N[C@@H](CO)C(=O)N1CCC[C@H]1C(N)=O)[C@@H](C)O)[C@@H](C)O)[C@@H](C)O)[C@@H](C)O (Palmitoyl-EASELSTAALGRLSAELHELATLPRTETGPESP-NH2) |
| ≥ 200 | 0.009 | ≥ 200 | ≥ 200 | ≥ 200 | 0.428 | ≥ 200 | ≥ 200 | 0.013 | ≥ 200 | ≥ 200 | CC(C)C[C@H](NC(=O)[C@H](C)NC(=O)[C@H](C)NC(=O)[C@@H](NC(=O)[C@H](CO)NC(=O)[C@H](CC(C)C)NC(=O)[C@H](CCC(N)=O)NC(=O)[C@H](CO)NC(=O)[C@H](C)NC(=O)CC[C@H](NC(=O)CCCCCCCCCCCCCCCCC(=O)O)C(=O)O)[C@@H](C)O)C(=O)NCC(=O)N[C@@H](CCCNC(=N)N)C(=O)N[C@@H](CC(C)C)C(=O)N[C@@H](CO)C(=O)N[C@@H](C)C(=O)N[C@@H](CCC(N)=O)C(=O)N[C@@H](CC(C)C)C(=O)N[C@@H](Cc1cnc[nH]1)C(=O)N[C@@H](CCC(=O)O)C(=O)N[C@@H](CC(C)C)C(=O)N[C@@H](C)C(=O)N[C@H](C(=O)N[C@@H](CC(C)C)C(=O)N1CCC[C@H]1C(=O)N[C@@H](CCCNC(=N)N)C(=O)N[C@H](C(=O)N[C@@H](CCC(=O)O)C(=O)N[C@H](C(=O)NCC(=O)N[C@@H](CO)C(=O)NCC(=O)N[C@@H](CO)C(=O)N1CCC[C@H]1C(N)=O)[C@@H](C)O)[C@@H](C)O)[C@@H](C)O ({C18 diacid-γGlu}-ASQLSTAALGRLSAQLHELATLPRTETGSGSP-NH2) |
| ≥ 200 | 0.008 | ≥ 200 | ≥ 200 | ≥ 200 | 1.14 | ≥ 200 | ≥ 200 | 0.003 | ≥ 200 | ≥ 200 | CC(C)C[C@H](NC(=O)[C@H](C)NC(=O)[C@H](C)NC(=O)[C@@H](NC(=O)[C@H](CO)NC(=O)[C@H](CC(C)C)NC(=O)[C@H](CCC(=O)O)NC(=O)[C@H](CO)NC(=O)[C@H](C)NC(=O)CC[C@H](NC(=O)CCCCCCCCCCCCC(=O)O)C(=O)O)[C@@H](C)O)C(=O)NCC(=O)N[C@@H](CCCNC(=N)N)C(=O)N[C@@H](CC(C)C)C(=O)N[C@@H](CO)C(=O)N[C@@H](C)C(=O)N[C@@H](CCC(=O)O)C(=O)N[C@@H](CC(C)C)C(=O)N[C@@H](Cc1cnc[nH]1)C(=O)N[C@@H](CCC(=O)O)C(=O)N[C@@H](CC(C)C)C(=O)N[C@@H](C)C(=O)N[C@H](C(=O)N[C@@H](CC(C)C)C(=O)N1CCC[C@H]1C(=O)N[C@@H](CCCNC(=N)N)C(=O)N[C@H](C(=O)N[C@@H](CCC(=O)O)C(=O)N[C@H](C(=O)NCC(=O)N1CCC[C@H]1C(=O)N[C@@H](CCC(=O)O)C(=O)N[C@@H](CO)C(=O)N1CCC[C@H]1C(N)=O)[C@@H](C)O)[C@@H](C)O)[C@@H](C)O ({C14 diacid-γGlu}-ASELSTAALGRLSAELHELATLPRTETGPESP-NH2) |

— ChEMBL document CHEMBL4420076, “Amylin and calcitonin receptor agonist” (2017)
